From patent publication US20060122150A1, “Pharmaceutical composition and method for treating a joint-capsule arthropathy” (priority 2004, published 2006)

Legend:
TXB2 = test: In vitro efficacy: inhibitor of TXB2; type: biochemical
COX-1 = COX-1 (Homo sapiens, UniProt P23219); test: In vitro efficacy: inhibitor of COX-1; type: biochemical
LTB4 = test: In vitro efficacy: inhibitor of LTB4; type: biochemical
[1] = test system: Rabbit Anterior Cruciate Ligament Transection (ACLT) Model; test: Rabbit ACLT osteoarthritis model, NSAID dispersed in HA (Example 4); type: in vivo, New Zealand White Rabbits; conditions: intra-articular 160 μL once per week for 5 weeks
Text: Osteoarthritis is a degenerative disease that degrades cartilage, resulting in pain, restriction of motion and deformity. In the ACLT model, the appearance of OA can be seen at 6 weeks and is characterized by erosion of cartilage on the trochlear grove and mild to serious cartilage erosion on the femoral condyle. The last symptoms to arise are on the tibial plateau. At 6 weeks, there is some damage visible on the tibial plateau, but the damage may not be great given the length of the study. […] While osteophyte formation is a factor in the analysis, several parameters are observed, wherein each parameter alone is not sufficient to draw a conclusion. Therefore, the composite score provides a more meaningful result for a particular agent tested.
The ACLT model was used to evaluate the ability of a NSAID agent in a pharmaceutical formulation administered directly into the intra-articular capsule of the knee to reduce the incidence of osteoarthritic changes. The NSAIDs formulations prepared in Example 2 were used and injected 6 weeks after animal preparation. A commercially available form of purified HA was used as the vehicle control. The animals (n=7 per group) were dosed (160 μL per injection) once per week for 5 weeks.
Female New Zealand White Rabbits (n=84, Milibrook Breeding Labs, SPF) used in the study underwent ACLT on the right knee.
One week after the last injection (total 12 weeks from time of ACLT), animals were euthanized and gross observations were made on the knee joints. Histological sectioning and staining were performed on the condyles.
The joints were analyzed for disease state in the trochlear groove, the femoral condyles and the tibial plateau. Pathological assessments were performed on the sectioned tissue. Condylar structure, cellularity, presence of GAG (glycosaminoglycans) and presence of cartilage were evaluated.
On the anterior surface of the femur (trochlear groove), the number of osteophytes, the size (diameter) of osteophytes, the presence of trochlear groove thickening and the erosion of cartilage were evaluated grossly.
On the femoral condyles, the erosion of cartilage (% surface area) (both medial and lateral condyle), the erosion of cartilage (depth) and the presence of clefts were evaluated grossly.
On the tibial plateau, observations on the thickening, presence of clefts and erosion were made.
Each parameter was given a score. The combination of all parameters gave a Total Score. A higher score indicates more damage to the joint. The data for un-operated joints (no surgery) has been included as a baseline for a normal joint.

5LO-1 = biological target: T1, 5LO-1 (Homo sapiens, UniProt P09917); test: In vitro efficacy: inhibitor of 5LO-1; type: biochemical
T1 sequence (P09917 1-674): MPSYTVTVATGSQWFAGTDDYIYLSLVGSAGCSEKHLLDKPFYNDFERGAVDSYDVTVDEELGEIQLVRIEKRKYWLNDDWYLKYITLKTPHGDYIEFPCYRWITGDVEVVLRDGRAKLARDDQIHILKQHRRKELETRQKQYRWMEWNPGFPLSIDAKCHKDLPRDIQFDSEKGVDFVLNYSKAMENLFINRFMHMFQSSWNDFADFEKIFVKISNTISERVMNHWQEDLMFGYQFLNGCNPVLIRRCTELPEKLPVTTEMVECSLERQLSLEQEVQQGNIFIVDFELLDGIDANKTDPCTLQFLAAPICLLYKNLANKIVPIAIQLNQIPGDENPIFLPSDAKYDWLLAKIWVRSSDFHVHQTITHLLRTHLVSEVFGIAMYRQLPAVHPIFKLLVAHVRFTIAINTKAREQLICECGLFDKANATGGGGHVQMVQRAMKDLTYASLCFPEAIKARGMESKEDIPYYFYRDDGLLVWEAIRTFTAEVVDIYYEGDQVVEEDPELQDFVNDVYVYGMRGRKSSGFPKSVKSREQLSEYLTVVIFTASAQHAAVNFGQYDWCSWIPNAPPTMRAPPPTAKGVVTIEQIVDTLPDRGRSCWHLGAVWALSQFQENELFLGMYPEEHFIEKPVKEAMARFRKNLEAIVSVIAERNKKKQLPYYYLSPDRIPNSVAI

COX-2 = biological target: T2, COX-2 (Homo sapiens, UniProt P35354); test: In vitro efficacy: inhibitor of COX-2; type: biochemical
T2 sequence (P35354 18-604): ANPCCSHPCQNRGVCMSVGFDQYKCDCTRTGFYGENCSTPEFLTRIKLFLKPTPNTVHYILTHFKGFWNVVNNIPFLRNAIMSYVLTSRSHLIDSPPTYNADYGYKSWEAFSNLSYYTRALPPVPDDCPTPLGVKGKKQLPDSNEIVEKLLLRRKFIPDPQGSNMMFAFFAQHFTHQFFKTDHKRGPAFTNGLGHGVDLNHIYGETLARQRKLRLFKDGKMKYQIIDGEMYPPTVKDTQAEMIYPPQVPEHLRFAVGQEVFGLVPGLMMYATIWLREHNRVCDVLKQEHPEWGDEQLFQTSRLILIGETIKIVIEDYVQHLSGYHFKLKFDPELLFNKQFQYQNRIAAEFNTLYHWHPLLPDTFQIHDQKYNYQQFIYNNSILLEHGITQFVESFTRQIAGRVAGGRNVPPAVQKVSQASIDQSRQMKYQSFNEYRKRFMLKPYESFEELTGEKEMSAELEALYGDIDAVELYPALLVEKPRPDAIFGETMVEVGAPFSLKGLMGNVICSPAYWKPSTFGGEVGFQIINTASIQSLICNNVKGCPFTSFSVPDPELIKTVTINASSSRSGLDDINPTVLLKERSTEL

COX-1, sequence (P23219 24-599): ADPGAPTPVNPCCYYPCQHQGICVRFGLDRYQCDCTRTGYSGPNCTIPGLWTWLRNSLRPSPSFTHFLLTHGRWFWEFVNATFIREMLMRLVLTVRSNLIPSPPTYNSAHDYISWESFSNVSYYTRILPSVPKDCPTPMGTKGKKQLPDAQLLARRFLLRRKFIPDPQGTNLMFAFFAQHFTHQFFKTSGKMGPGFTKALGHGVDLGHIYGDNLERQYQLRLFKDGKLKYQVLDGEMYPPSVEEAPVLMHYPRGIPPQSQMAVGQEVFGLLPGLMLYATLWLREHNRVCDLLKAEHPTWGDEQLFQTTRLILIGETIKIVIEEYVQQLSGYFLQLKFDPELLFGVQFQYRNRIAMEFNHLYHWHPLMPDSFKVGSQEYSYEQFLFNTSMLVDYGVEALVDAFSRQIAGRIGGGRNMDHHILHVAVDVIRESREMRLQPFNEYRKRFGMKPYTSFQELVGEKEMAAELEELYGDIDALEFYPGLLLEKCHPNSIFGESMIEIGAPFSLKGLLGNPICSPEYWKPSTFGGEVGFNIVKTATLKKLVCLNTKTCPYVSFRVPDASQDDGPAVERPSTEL

IC50 (COX-1) [µM] | IC50 (5LO-1) [µM] | IC50 (COX-2) [µM] | Compound | All Cartilage Effects composite score ([1]; high dose) | All Trochlear Groove Effects composite score ([1]; high dose) | Total Score (composite of all scoring criteria) ([1]; high dose) | Trochlear Groove (Erosion of Cartilage) grade ([1]; high dose) | All Cartilage Effects composite score ([1]; mid dose) | Lateral Femoral Condyle (% Surface Area Erosion) score ([1]; mid dose) | Medial Femoral Condyle (% Surface Area Erosion) score ([1]; low dose) | All Tibial Plateau Effects composite score ([1]; mid dose) | Medial Femoral Condyle (% Surface Area Erosion) score ([1]; mid dose) | Total Score (composite of all scoring criteria) ([1]; mid dose) | other results
0.97 | 0.17 | 2 | COc1ccc(-n2nc(CCC(=O)N(C)O)cc2-c2ccc(Cl)cc2)cc1 [Tepoxalin] | lower mean scores than the No Injection treated group | lower mean scores than Vehicle and No Injection treated groups | numerically less average scores than the No Injection treated group | numerically lower than the Vehicle control and No Injection treated groups | lower mean scores than the No Injection treated group | average numerical scores less than Vehicle and No Injection treated groups | – | – | – | – | IC50 (TXB2): 0.002 µM; IC50 (LTB4): 0.04 µM; Medial Femoral Condyle (% Surface Area Erosion) score ([1]; all dose groups): average numerical scores less than Vehicle and No Injection treated groups; Total Score (composite of all scoring criteria) ([1]; low dose): numerically less average scores than the No Injection treated group
0.06 | 3 | 1 | CC(C(=O)O)c1ccc(C(=O)c2cccs2)cc1 (stereo not drawn) [Suprofen] | lower mean scores than the No Injection treated group | – | numerically less average scores than the No Injection treated group | – | lower mean scores than the No Injection treated group | average numerical scores less than Vehicle and No Injection treated groups | the same average score as No Injection but scored better than Vehicle | lower average scores than the No Injection treated group | average numerical scores less than Vehicle and No Injection treated groups | numerically less average scores than the No Injection treated group | All Trochlear Groove Effects composite score ([1]; all dose groups): lower mean scores than Vehicle and No Injection treated groups; Trochlear Groove (Erosion of Cartilage) grade ([1]; all dose levels): numerically lower than the Vehicle control and No Injection treated groups; Lateral Femoral Condyle (% Surface Area Erosion) score ([1]; high dose): average numerical scores less than Vehicle and No Injection treated groups
3 | 0.03 | 0.05 | Cc1ccc(C(=O)c2ccc(CC(=O)O)n2C)cc1 [Tolmetin] | – | lower mean scores than Vehicle and No Injection treated groups | – | numerically lower than the Vehicle control and No Injection treated groups | lower mean scores than the No Injection treated group | average numerical scores less than Vehicle and No Injection treated groups | average numerical scores less than Vehicle and No Injection treated groups | lower average scores than the No Injection treated group | average numerical scores less than Vehicle and No Injection treated groups | numerically less average scores than the No Injection treated group | Femoral Condyle (Depth of Erosion) score ([1]; high dose): the same average score as the No Injection group
